Active and inactive are the calls of the source. No cut-off for these calls is given here.

Test [1] relates to Osimertinib-resistant NCI-H1975 cell. The test can be described thus: Induction of apoptosis in human Osimertinib-resistant NCI-H1975 cell (AZDR) assessed as early apoptotic cells at 1 uM incubated for 24 hrs by Annexin V and propidium iodide staining based flow cytometry analysis (reference value: 3.38%). The test is classed as functional. (In general: In flow cytometry, cells or beads pass a laser one at a time.)

Test [2] shares this test system. The test can be described thus: Anticancer activity against human Osimertinib-resistant NCI-H1975 cell (AZDR) xenografted in BALB/c nude mouse model assessed as increase in tumor cell apoptosis at 10 mg/kg, po by TUNEL assay. The class given is functional, organism-based. On the technique in general: A xenograft is tissue or cells of one species grown in another, often human tumour cells in immunodeficient mice.

Another test relates to MCF7. The test can be described thus: Antiproliferative activity against human MCF7 cells incubated for 72 hrs by MTT assay. The test is classed as functional, cell-based. The conditions noted are these: MCF7, 72 h. In general terms: Tetrazolium dyes change colour on reduction, which living cells bring about.
The subject of test [3] is Mus musculus. The test can be described thus: In vivo inhibition of EGFR L858R/T790M mutant in BALB/c nude mouse xenografted with human Osimertinib-resistant NCI-H1975 cell (AZDR) assessed as downregulation of EGFR phosphorylation at 10 mg/kg, po measured after 22 days. The class given is functional, organism-based. As to conditions: time 22.0 day.
Test [4] concerns Mus musculus. The test can be described thus: In vivo inhibition of EGFR L858R/T790M mutant in BALB/c nude mouse xenografted with human Osimertinib-resistant NCI-H1975 cell (AZDR) assessed as downregulation of AKT phosphorylation at 10 mg/kg, po measured after 22 days. As to conditions: time 22.0 day. The test is classed as functional, organism-based.
For test [5], the system named is Osimertinib-resistant NCI-H1975 cell. In words: Induction of apoptosis in human Osimertinib-resistant NCI-H1975 cell (AZDR) assessed as late apoptotic cells at 1 uM incubated for 24 hrs by Annexin V and propidium iodide staining based flow cytometry analysis (reference value: 1.06%). The test is classed as functional.
For test [6] the test system is unchanged. The test can be described thus: Antiproliferative activity against human Osimertinib-resistant NCI-H1975 cell (AZDR) incubated for 72 hrs by MTT assay. The test is classed as functional, cell-based.
Test [7] relates to Mus musculus. In words: In vivo inhibition of ACK1 in BALB/c nude mouse xenografted with human Osimertinib-resistant NCI-H1975 cell (AZDR) assessed as downregulation of ACK1 phosphorylation at 10 mg/kg, po measured after 22 days. The class given is functional, organism-based. As to conditions: time 22.0 day.
The subject of test [8] is Osimertinib-resistant NCI-H1975 cell. In words: Induction of apoptosis in human Osimertinib-resistant NCI-H1975 cell (AZDR) assessed as late apoptotic cells at 1 uM incubated for 24 hrs in presence of dasatinib by Annexin V and propidium iodide staining based flow cytometry analysis (reference value: 1.06%). The class given is functional.
Test [9] has the same test system. The test can be described thus: Induction of apoptosis in human Osimertinib-resistant NCI-H1975 cell (AZDR) assessed as early apoptotic cells at 1 uM incubated for 24 hrs in presence of dasatinib by Annexin V and propidium iodide staining based flow cytometry analysis (reference value: 3.38%). The class given is functional.
Test [10] has the same test system. The test can be described thus: Anticancer activity against human Osimertinib-resistant NCI-H1975 cell (AZDR) xenografted in BALB/c nude mouse model assessed as increase in tumor cell apoptosis at 10 mg/kg, po in presence of dasatinib by TUNEL assay. The test is classed as functional, organism-based.
The next test relates to NCI-H1975. In words: Antiproliferative activity against human NCI-H1975 cells incubated for 72 hrs by MTT assay. The test is classed as functional, cell-based. The conditions noted are these: NCI-H1975, 72 h.
The test system of test [11] is Osimertinib-resistant NCI-H1975 cell. In words: Anticancer activity against human Osimertinib-resistant NCI-H1975 cell (AZDR) xenografted in BALB/c nude mouse model assessed as increase tumor cell apoptosis at 10 mg/kg, po in presence of osimertinib by TUNEL assay. The class given is functional, organism-based.
The test system is the same in test [12]. In words: Induction of apoptosis in human Osimertinib-resistant NCI-H1975 cell (AZDR) assessed as early apoptotic cells at 1 uM incubated for 24 hrs in presence of osimertinib by Annexin V and propidium iodide staining based flow cytometry analysis (reference value: 3.38%). The class given is functional.
For test [13] the test system is unchanged. In words: Induction of apoptosis in human Osimertinib-resistant NCI-H1975 cell (AZDR) assessed as late apoptotic cells at 1 uM incubated for 24 hrs in presence of osimertinib by Annexin V and propidium iodide staining based flow cytometry analysis (reference value: 1.06%). The test is classed as functional.

One may read the IC50 as the point on the concentration scale where inhibition reaches its midpoint. Read a low IC50 as higher potency. Consider `C=CC(=O)Nc1cc(Nc2nccc(-c3cn(C)c4ccccc34)n2)c(OC)cc1N(C)CCN(C)C` [OSIMERTINIB], for which the Activity in test [1] is reported as 2.86%; in test [5], 1.22%; in [8], 20.6%; in test [9], 19.6%. Besides, in test [2], the result was inactive. Further, the IC50 was 1.16 µM in the test with MCF7, 4 µM in [6] and 0.015 µM in the test on NCI-H1975. Also, the inhibition result in the test with Mus musculus [3] and in the test with Mus musculus [7] was “Active” each time. The inhibition result in the test with Mus musculus [4] is “inactive”. Further, the result in test [10] was Active.

For the molecule `Cc1nc(Nc2ncc(C(=O)Nc3c(C)cccc3Cl)s2)cc(N2CCN(CCO)CC2)n1` [DASATINIB ANHYDROUS], the Activity in [1] amounted to 10.2%; in test [5], 7.4%; in test [12] it was 19.6%; in test [13], 20.6%. Moreover, the outcome in test [2] was inactive. Also, in test [11], the result was Active. The inhibition result with Mus musculus [3] and in the test on Mus musculus [7] was “Active” each time. In the test with Mus musculus [4], the inhibition result is “inactive”.

Take `C=CC(=O)Nc1cccc(Nc2nc(Nc3cnn(C)c3)nc3ccc(Cl)cc23)c1`: the figures for the IC50 (with MCF7; in test [6]; with NCI-H1975) were 1.23 µM, 1.04 µM and 0.95 µM, respectively.

In the case of `C=CC(=O)Nc1cccc(Nc2nc(Nc3cnn(CCN4CCOCC4)c3)nc3ccc(Cl)cc23)c1`, the half-inhibitory concentration (IC50) in the test with MCF7 was 8.78 µM; in [6] it was 3.45 µM; in the test with NCI-H1975, 1.7 µM.

On to `C=CC(=O)Nc1cccc(Nc2nc(Nc3cnn(C(C)(C)C)c3)nc3ccc(Cl)cc23)c1`, for which the IC50 in the test on MCF7 stood at 5.64 µM; in [6] it was 3.94 µM; in the test with NCI-H1975 it was 2.1 µM.

As to `C=CC(=O)Nc1cccc(Nc2nc(Nc3c(C)nn(C)c3C)nc3ccc(Cl)cc23)c1`, the IC50 turned out to be 4.4 µM with MCF7, 1.62 µM in test [6] and 2.89 µM in the test on NCI-H1975.

Regarding `C=CC(=O)Nc1ccc(Nc2nc(Nc3cnn(C)c3)nc3ccc(Cl)cc23)cc1`, the figures for the IC50 (in the test on MCF7; in [6]; in the test on NCI-H1975) were 3.58 µM, 7.35 µM and 7.58 µM, respectively.

In the case of `C=CC(=O)Nc1cccc(Nc2nc(Nc3cn(C)nc3C)nc3ccc(Cl)cc23)c1`, the IC50 in the test on MCF7 was 15 µM; in [6], more than 20 µM; in the test with NCI-H1975, 4.05 µM.
